Values quoted from earlier work in patent US11317628B2, “Microparticle compositions comprising saflufenacil” (BASF Agro B.V., priority 2015, dated 2022).

Conditions: background statement

## CC(C)N(C)S(=O)(=O)NC(=O)c1cc(-n2c(=O)cc(C(F)(F)F)n(C)c2=O)c(F)cc1Cl [Saflufenacil, 2-chloro-5-[3,6-dihydro-3-methyl-2,6-dioxo-4-(trifluoromethyl)-1-(2H)pyrimidinyl]-4-fluoro-N-[[methyl(1-methylethyl)amino]sulfonyl]benzamide]
  Solubility in water: only sparingly soluble in water
